Reference: PubChem BioAssay AID623929 (Vanderbilt Specialized Chemistry Center, 2012)

Target: Metabotropic glutamate receptor 2 (Rattus norvegicus) (UniProt P31421)
Assay: PubChem AID 623929
Conditions: HEK293 GIRK rat mGlu2, thallium flux fluorescence; call rule not given here

Sequence of Metabotropic glutamate receptor 2 (Rattus norvegicus) (P31421 whole entry, looked up): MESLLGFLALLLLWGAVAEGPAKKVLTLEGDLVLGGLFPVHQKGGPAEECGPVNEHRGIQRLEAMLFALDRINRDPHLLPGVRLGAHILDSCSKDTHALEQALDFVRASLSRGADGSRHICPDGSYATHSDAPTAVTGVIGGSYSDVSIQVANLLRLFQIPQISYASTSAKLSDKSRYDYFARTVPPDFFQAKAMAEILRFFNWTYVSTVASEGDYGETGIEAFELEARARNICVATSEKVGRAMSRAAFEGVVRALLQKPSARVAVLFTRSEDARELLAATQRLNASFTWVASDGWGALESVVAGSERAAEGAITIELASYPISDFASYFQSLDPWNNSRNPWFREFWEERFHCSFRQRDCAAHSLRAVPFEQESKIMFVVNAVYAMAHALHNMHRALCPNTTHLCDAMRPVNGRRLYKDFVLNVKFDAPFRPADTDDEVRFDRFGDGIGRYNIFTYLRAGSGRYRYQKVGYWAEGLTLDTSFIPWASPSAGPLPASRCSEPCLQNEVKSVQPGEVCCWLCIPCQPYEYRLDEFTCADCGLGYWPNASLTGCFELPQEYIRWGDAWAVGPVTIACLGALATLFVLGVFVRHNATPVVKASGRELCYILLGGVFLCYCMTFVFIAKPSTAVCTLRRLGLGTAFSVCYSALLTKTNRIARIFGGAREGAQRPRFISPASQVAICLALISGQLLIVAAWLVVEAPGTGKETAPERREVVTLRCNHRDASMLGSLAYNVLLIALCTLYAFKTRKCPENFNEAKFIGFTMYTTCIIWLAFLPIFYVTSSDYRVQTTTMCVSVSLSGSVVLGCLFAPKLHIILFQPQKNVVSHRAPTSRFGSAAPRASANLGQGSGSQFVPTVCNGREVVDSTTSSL

IC50, active:
COc1ccc(C#Cc2ccc(C(=O)N3CCC[C@H](CO)C3)cc2)cc1 10 µM
COc1ccc(C#Cc2ccc(C(=O)N3CCC[C@@H](CO)C3)cc2)cc1 10 µM
COc1ccc(C#Cc2ccc(C(=O)N3CCCC(CO)C3)cc2)cc1 (stereo not drawn) 10 µM
